Source: patent publication US7045515B2, “β-lactam compounds process for reproducing the same and serum cholesterol-lowering agents containing the same” (Kotobuki Pharmaceutical Co., Ltd., priority 2001, dated 2006)

melting point	Compound
96 to 98 °C	Cc1ccc(N2C(=O)[C@H](CCOc3ccc(F)cc3)[C@H]2c2ccc(C[C@@H]3O[C@H](CO)[C@@H](O)[C@H](O)[C@H]3O)cc2)cc1 [Compound 43, 4-(4-{[(5S,2R,3R,4R,6R)-3,4,5-Trihydroxy-6-(hydroxymethyl)perhydro-2H-pyran-2-yl]methyl}phenyl)(4S,3R)-1-(4-methylphenyl)-3-[3-(4-fluorophenoxy)ethyl]azetidine-2-one]
74 to 75 °C	O=C1[C@H](CCCc2ccccc2)[C@@H](c2ccc(CC3O[C@H](CO)[C@@H](O)[C@H](O)[C@H]3O)cc2)N1c1ccc(F)cc1 (relative stereo) [Compound 11, (4S*,3R*)-4-(4-{[(5S,2R,3R,4R,6R)-3,4,5-Trihydroxy-6-(hydroxymethyl)perhydro-2H-pyran-2-yl]methyl}phenyl)-1-(4-fluorophenyl)-3-[3-(phenyl)propyl]azetidine-2-one]
148 to 150 °C	O=C(O)c1ccc(N2C(=O)[C@H](CC[C@H](O)c3ccc(F)cc3)[C@H]2c2ccc(C[C@@H]3O[C@H](CO)[C@@H](O)[C@H](O)[C@H]3O)cc2)cc1 [Compound 29, 4-[(4S,3R)-3-[(3S)-3-(4-Fluorophenyl)-3-hydroxypropyl]-4-(4-{[(2S,5S,3R,4R,6R)-3,4,5-trihydroxy-6-(hydroxymethyl)perhydro-2H-pyran-2-yl]methyl}phenyl)-2-oxoazetidinyl]benzoic acid]
80 to 82 °C	Cc1ccc(N2C(=O)[C@H](CCCc3ccc(F)cc3)[C@H]2c2ccc(CC3O[C@H](CO)[C@@H](O)[C@H](O)[C@H]3O)cc2)cc1 (relative stereo) [Compound 7, (4S*,3R*)-4-(4-{[(5S,2R,3R,4R,6R)-3,4,5-Trihydroxy-6-(hydroxymethyl)perhydro-2H-pyran-2-yl]methyl}phenyl)-1-(4-methylphenyl)-3-[3-(4-fluorophenyl)propyl]azetidine-2-one]
61 to 63 °C	O=C1[C@H](CC[C@H](O)c2ccc(F)cc2)[C@@H](c2ccc(CCCOC[C@@H]3O[C@H](CO)[C@@H](O)[C@H](O)[C@H]3O)cc2)N1c1ccc(F)cc1 [Compound 50]
161 to 162 °C	Cc1ccc(CCC[C@H]2C(=O)N(c3ccc(OC(C)(C)C(=O)O)cc3)[C@@H]2c2ccc(C[C@@H]3O[C@H](CO)[C@@H](O)[C@H](O)[C@H]3O)cc2)cc1 (relative stereo) [Compound 21, 2-{4-[(4S*,3R*)-4-{[(5S,2R,3R,4R,6R)-3,4,5-Trihydroxy-6-(hydroxymethyl)perhydro-2H-pyran-2-yl]methyl}phenyl-3-[3-(4-methylphenyl)propyl]-2-oxoazetidinyl]phenoxy}-2-methylpropionic acid]
65 to 67 °C	O=C1[C@H](CC[C@H](O)c2ccc(F)cc2)[C@@H](c2ccc(/C=C/COC[C@@H]3O[C@H](CO)[C@@H](O)[C@H](O)[C@H]3O)cc2)N1c1ccc(F)cc1 [Compound 51]
56 to 58 °C	CCOC(=O)c1ccc(N2C(=O)[C@H](CC[C@H](O)c3ccc(F)cc3)[C@H]2c2ccc(C[C@@H]3O[C@H](CO)[C@@H](O)[C@H](O)[C@H]3O)cc2)cc1 [Compound 42, 4-[3-((3S)-3-(4-Fluorophenyl)-3-hydroxypropyl](4S,3R)-4-(4-{[(2S,5S,3R,4R,6R)-3,4,5-trihydroxy-6-(hydroxymethyl)perhydro-2H-pyran-2-yl]methyl}phenyl)-2-oxoazetidinyl]benzoic acid ethyl ester]
61 to 62 °C	O=C1[C@H](CCCc2ccc(F)cc2)[C@@H](c2ccc(OCC3O[C@H](CO)[C@@H](O)[C@H](O)[C@H]3O)cc2)N1c1ccc(F)cc1 (relative stereo) [Compound 14, (4S*,3R*)-4-(4-{[(4S,5S,2R,3R,6R)-3,4,5-Trihydroxy-6-(hydroxymethyl)perhydro-2H-pyran-2-yl]methoxy}phenyl)-1-(4-fluorophenyl)-3-[3-(4-fluorophenyl)propyl]azetidine-2-one]
